According to publication PMC11271627, “Molecular dynamics-guided optimization of BGM0504 enhances dual-target agonism for combating diabetes and obesity” (Scientific Reports, 2024):

Tests used:
[1] = biological target: T1, Human GIPR (Homo sapiens, UniProt P48546); test: cAMP accumulation assay, GIPR; type: cell-based; conditions: CHO
T1 construct: expressed in transfected cells; host or cells: CHO cells
T1 sequence (P48546 22-466): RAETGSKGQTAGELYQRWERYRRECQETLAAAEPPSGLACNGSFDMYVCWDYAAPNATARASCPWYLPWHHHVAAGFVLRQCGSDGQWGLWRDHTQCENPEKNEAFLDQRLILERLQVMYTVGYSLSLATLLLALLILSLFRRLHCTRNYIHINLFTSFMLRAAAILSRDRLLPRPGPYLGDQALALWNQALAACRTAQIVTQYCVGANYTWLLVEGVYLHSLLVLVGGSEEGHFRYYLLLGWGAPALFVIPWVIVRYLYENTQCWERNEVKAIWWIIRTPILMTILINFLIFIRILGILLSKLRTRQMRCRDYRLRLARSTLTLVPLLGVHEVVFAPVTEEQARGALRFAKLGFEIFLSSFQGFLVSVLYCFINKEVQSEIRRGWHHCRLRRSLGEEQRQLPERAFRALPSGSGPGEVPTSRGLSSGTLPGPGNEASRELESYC
Description: (§1) These cells were then resuspended in 5 mL of the assay buffer, and their concentration was determined using a Vi-Cell Counter. […] Samples were subsequently added to the assay plate along with ECHO555. […] A volume of 10 µL of the cell suspension was added to the assay plate, with a density of 1000 cells/well for GLP-1R testing and 2000 cells/well for GIPR testing. The assay plate was then incubated in a 23°C incubator for 30 minutes. A starting concentration of 800 nM was used to prepare the cAMP standard curve, followed by a 4-fold 10-point serial dilution. These serially diluted cAMP standards were added to the assay plate at a volume of 10 µL/well. Subsequently, 10 µL of the cAMP detection solution was added to the assay plate, and the plate was incubated at room temperature for 1 hour, shielded from direct light. […] For data analysis, each data point’s cAMP level (nM) was calculated using the established cAMP standard curve. The percentage activity for each data point was determined using the formula: % Activity = (cAMP level of testing sample - average cAMP level of low control) / ([…] cAMP level of high control - average cAMP level of […] control) × 100%. Additionally, the ‘log(agonist) vs. response – variable slope’ model in GraphPad Prism 5.0 was used to fit the dose-response curve of each sample and calculate the EC50 value.

[2] = biological target: T2, Human GLP-1R (Homo sapiens, UniProt P43220); test: cAMP accumulation assay, GLP-1R; type: cell-based; conditions: HEK293 cells; relative to 10 nM GLP-1(7–37) high control; arithmetic mean ± SEM
T2 construct: expressed in transfected cells; host or cells: HEK293 cells
T2 sequence (P43220 24-463): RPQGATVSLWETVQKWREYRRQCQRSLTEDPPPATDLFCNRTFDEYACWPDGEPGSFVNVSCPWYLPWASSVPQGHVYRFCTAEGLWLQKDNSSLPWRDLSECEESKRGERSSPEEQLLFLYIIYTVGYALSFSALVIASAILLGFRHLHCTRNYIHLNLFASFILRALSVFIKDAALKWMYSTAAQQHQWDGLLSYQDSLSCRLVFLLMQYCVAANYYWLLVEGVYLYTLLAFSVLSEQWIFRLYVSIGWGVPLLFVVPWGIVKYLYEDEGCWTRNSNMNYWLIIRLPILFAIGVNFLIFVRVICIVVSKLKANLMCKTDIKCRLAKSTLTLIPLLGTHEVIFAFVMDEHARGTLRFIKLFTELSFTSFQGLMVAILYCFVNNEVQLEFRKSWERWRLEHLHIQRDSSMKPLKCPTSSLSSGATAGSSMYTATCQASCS
Description: as §1

[3] = biological target: T3, Human Serum Albumin (HSA) protein (Homo sapiens, UniProt P02768); test: biochemical; type: binding
T3 construct: purified Human ALB (25–609)-His was immobilized
T3 sequence (P02768 25-609): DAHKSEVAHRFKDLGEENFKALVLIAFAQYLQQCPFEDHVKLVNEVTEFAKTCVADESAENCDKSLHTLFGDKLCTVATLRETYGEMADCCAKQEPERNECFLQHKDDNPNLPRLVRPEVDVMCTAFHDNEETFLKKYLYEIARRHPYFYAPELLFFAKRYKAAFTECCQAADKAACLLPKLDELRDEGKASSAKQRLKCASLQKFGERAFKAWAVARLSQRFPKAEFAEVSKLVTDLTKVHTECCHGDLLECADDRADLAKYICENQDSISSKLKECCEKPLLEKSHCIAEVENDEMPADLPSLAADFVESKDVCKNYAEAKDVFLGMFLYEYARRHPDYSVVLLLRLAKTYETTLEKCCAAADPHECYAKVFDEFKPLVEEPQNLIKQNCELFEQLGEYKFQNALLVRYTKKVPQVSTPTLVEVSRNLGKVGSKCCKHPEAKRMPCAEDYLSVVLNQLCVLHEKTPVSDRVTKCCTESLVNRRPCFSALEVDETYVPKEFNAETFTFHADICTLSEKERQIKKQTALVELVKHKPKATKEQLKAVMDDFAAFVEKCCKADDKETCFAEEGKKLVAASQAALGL
Description: The buffer used was PBST (PBS with 0.02% Tween 20).

## CC[C@H](C)[C@H](NC(=O)[C@H](CC(C)C)NC(=O)[C@H](Cc1c[nH]c2ccccc12)NC(=O)[C@H](CCC(N)=O)NC(=O)[C@@H](NC(=O)[C@H](Cc1ccccc1)NC(=O)[C@H](C)NC(=O)[C@H](CCCCN)NC(=O)[C@H](CCC(N)=O)NC(=O)[C@H](C)NC(=O)[C@@H](NC(=O)[C@H](CCCCN)NC(=O)[C@H](CC(=O)O)NC(=O)[C@H](CC(C)C)NC(=O)C(C)(C)NC(=O)[C@@H](NC(=O)[C@H](CO)NC(=O)[C@H](Cc1ccc(O)cc1)NC(=O)[C@H](CC(=O)O)NC(=O)[C@H](CO)NC(=O)[C@@H](NC(=O)[C@H](Cc1ccccc1)NC(=O)[C@@H](NC(=O)CNC(=O)[C@H](CCC(=O)O)NC(=O)C(C)(C)NC(=O)[C@@H](N)Cc1ccc(O)cc1)[C@@H](C)O)[C@@H](C)O)[C@@H](C)CC)[C@@H](C)CC)C(C)C)C(=O)N[C@@H](C)C(=O)NCC(=O)NCC(=O)N1CCC[C@H]1C(=O)N[C@@H](CO)C(=O)N[C@@H](CO)C(=O)NCC(=O)N[C@@H](C)C(=O)N1CCC[C@H]1C(=O)N1CCC[C@H]1C(=O)N1CCC[C@H]1C(=O)N[C@@H](CO)C(N)=O [Non-acylated Tirzepatide, reference compound]
[1]
  Emax: 92.2 ± 1.7%
[2]
  Emax: 96.1 ± 10.8%

## CC[C@H](C)[C@H](NC(=O)[C@H](CC(C)C)NC(=O)[C@H](Cc1c[nH]c2ccccc12)NC(=O)[C@H](CCC(N)=O)NC(=O)[C@@H](NC(=O)[C@H](Cc1ccccc1)NC(=O)[C@H](C)NC(=O)[C@H](CCCCNC(=O)COCCOCCNC(=O)COCCOCCNC(=O)CC[C@H](NC(=O)CCCCCCCCCCCCCCCCCCC(=O)O)C(=O)O)NC(=O)[C@H](CCC(N)=O)NC(=O)[C@H](C)NC(=O)[C@@H](NC(=O)[C@H](CCCCN)NC(=O)[C@H](CC(=O)O)NC(=O)[C@H](CC(C)C)NC(=O)C(C)(C)NC(=O)[C@@H](NC(=O)[C@H](CO)NC(=O)[C@H](Cc1ccc(O)cc1)NC(=O)[C@H](CC(=O)O)NC(=O)[C@H](CO)NC(=O)[C@@H](NC(=O)[C@H](Cc1ccccc1)NC(=O)[C@@H](NC(=O)CNC(=O)[C@H](CCC(=O)O)NC(=O)C(C)(C)NC(=O)[C@@H](N)Cc1ccc(O)cc1)[C@@H](C)O)[C@@H](C)O)[C@@H](C)CC)[C@@H](C)CC)C(C)C)C(=O)N[C@@H](C)C(=O)NCC(=O)NCC(=O)N1CCC[C@H]1C(=O)N[C@@H](CO)C(=O)N[C@@H](CO)C(=O)NCC(=O)N[C@@H](C)C(=O)N1CCC[C@H]1C(=O)N1CCC[C@H]1C(=O)N1CCC[C@H]1C(=O)N[C@@H](CO)C(N)=O [Tirzepatide, reference compound]
[1]
  Emax: 87.1 ± 7.6%
[3]
  Kd: 86.3 nM
[2]
  Emax: 84.1 ± 5%
